Test results as given in PubChem BioAssay (NCI).
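Interpolation was linear, between the two tested concentrations surrounding the appropriate level; five concentrations were tested over 48 hours in 96-well plates. Here, GI50 denotes the concentration required for 50% inhibition of growth. TGI: concentration producing complete growth inhibition.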

How the values were obtained:
Assay in all cases: inhibition of tumour cell growth, NCI panel, 48 h
NCI-H522 lung = test system: NCI-H522 lung
A498 renal = test system: A498 renal
HT29 colon = test system: HT29 colon
LOX IMVI melanoma = test system: LOX IMVI melanoma
MDA-MB-231 breast = test system: MDA-MB-231 breast
SN12C renal = test system: SN12C renal
NCI-H460 lung = test system: NCI-H460 lung
HS 578T breast = test system: HS 578T breast
A549 NSCLC = test system: A549 NSCLC
SF-295 CNS = test system: SF-295 CNS
SF-539 CNS = test system: SF-539 CNS
786-0 renal = test system: 786-0 renal
RXF 393 renal = test system: RXF 393 renal
SK-MEL-2 melanoma = test system: SK-MEL-2 melanoma
SK-MEL-5 melanoma = test system: SK-MEL-5 melanoma
SK-MEL-28 melanoma = test system: SK-MEL-28 melanoma
ACHN renal = test system: ACHN renal
K-562 leukemia = test system: K-562 leukemia
OVCAR-8 ovarian = test system: OVCAR-8 ovarian
U251 CNS = test system: U251 CNS
SNB-75 CNS = test system: SNB-75 CNS
NCI/ADR-RES ovarian = test system: NCI/ADR-RES ovarian
UACC-62 melanoma = test system: UACC-62 melanoma
SK-OV-3 ovarian = test system: SK-OV-3 ovarian
NCI-H226 lung = test system: NCI-H226 lung
TK-10 renal = test system: TK-10 renal
HCC-2998 colon = test system: HCC-2998 colon
COLO 205 colon = test system: COLO 205 colon
MALME-3M melanoma = test system: MALME-3M melanoma
UO-31 renal = test system: UO-31 renal
MCF7 breast = test system: MCF7 breast
OVCAR-5 ovarian = test system: OVCAR-5 ovarian
NCI-H23 lung = test system: NCI-H23 lung
HOP-92 NSCLC = test system: HOP-92 NSCLC
M14 melanoma = test system: M14 melanoma
DU-145 prostate = test system: DU-145 prostate
HOP-62 NSCLC = test system: HOP-62 NSCLC
CAKI-1 renal = test system: CAKI-1 renal
CCRF-CEM leukemia = test system: CCRF-CEM leukemia
HCT-15 colon = test system: HCT-15 colon
MDA-N = test system: MDA-N
MDA-MB-435 = test system: MDA-MB-435
IGROV1 ovarian = test system: IGROV1 ovarian
MOLT-4 leukemia = test system: MOLT-4 leukemia
SNB-19 CNS = test system: SNB-19 CNS
RPMI-8226 leukemia = test system: RPMI-8226 leukemia
HCT-116 colon = test system: HCT-116 colon
SW-620 colon = test system: SW-620 colon
SR leukemia = test system: SR leukemia
UACC-257 melanoma = test system: UACC-257 melanoma
HL-60(TB) leukemia = test system: HL-60(TB) leukemia
SF-268 CNS = test system: SF-268 CNS
OVCAR-4 ovarian = test system: OVCAR-4 ovarian
PC-3 prostate = test system: PC-3 prostate
KM12 colon = test system: KM12 colon
BT-549 breast = test system: BT-549 breast
EKVX NSCLC = test system: EKVX NSCLC
OVCAR-3 ovarian = test system: OVCAR-3 ovarian
T-47D breast = test system: T-47D breast

CN1CCN(c2ccc3nc(-c4ccc5nc(-c6ccc(N(C)CCCl)cc6)[nH]c5c4)[nH]c3c2)CC1
TGI (NCI-H522 lung): 0.0365 µM | TGI (A498 renal): 6.74 µM | TGI (HT29 colon): 675 nM | TGI (LOX IMVI melanoma): 218 nM | TGI (MDA-MB-231 breast): 22.3 µM | TGI (SN12C renal): 1.13 µM | TGI (NCI-H460 lung): 5.14 µM | TGI (HS 578T breast): 0.58 µM | TGI (A549 NSCLC): 10.1 µM | TGI (SF-295 CNS): 11.2 µM | TGI (SF-539 CNS): 462 nM | TGI (786-0 renal): 1.11 µM | TGI (RXF 393 renal): 501 nM | TGI (SK-MEL-2 melanoma): 0.465 µM | TGI (SK-MEL-5 melanoma): 517 nM | TGI (SK-MEL-28 melanoma): 1130 nM | TGI (ACHN renal): 5.97 µM | TGI (K-562 leukemia): 1160 nM | TGI (OVCAR-8 ovarian): 1530 nM | TGI (U251 CNS): 1.09 µM | TGI (SNB-75 CNS): 0.897 µM | TGI (NCI/ADR-RES ovarian): > 100 µM | TGI (UACC-62 melanoma): 1050 nM | TGI (SK-OV-3 ovarian): 1.2 µM | TGI (NCI-H226 lung): 5.2 µM | TGI (TK-10 renal): 9.77 µM | TGI (HCC-2998 colon): 1.88 µM | TGI (COLO 205 colon): 341 nM | TGI (MALME-3M melanoma): 410 nM | TGI (UO-31 renal): 33.8 µM | TGI (MCF7 breast): 0.56 µM | TGI (OVCAR-5 ovarian): 12.4 µM | TGI (NCI-H23 lung): 7.4 µM | TGI (HOP-92 NSCLC): 0.989 µM | TGI (M14 melanoma): 3.42 µM | TGI (DU-145 prostate): 11.4 µM | TGI (HOP-62 NSCLC): 0.645 µM | TGI (CAKI-1 renal): 17.1 µM | TGI (CCRF-CEM leukemia): 647 nM | TGI (HCT-15 colon): 26.1 µM | TGI (MDA-N): 511 nM | TGI (MDA-MB-435): 0.281 µM | TGI (IGROV1 ovarian): 0.391 µM | TGI (MOLT-4 leukemia): 357 nM | TGI (SNB-19 CNS): 1010 nM | TGI (RPMI-8226 leukemia): 16.5 µM | TGI (HCT-116 colon): 14.4 µM | TGI (SW-620 colon): 1.22 µM | TGI (SR leukemia): 12.5 µM | TGI (UACC-257 melanoma): 3.34 µM | TGI (HL-60(TB) leukemia): > 100 µM | TGI (SF-268 CNS): 11 µM | TGI (OVCAR-4 ovarian): 1040 nM | TGI (PC-3 prostate): 0.383 µM | TGI (KM12 colon): 2310 nM

CCN1CCN(c2cc(C)nc(NCc3cc(Nc4ccnc5cc(Cl)ccc45)ccc3F)n2)CC1
GI50 (NCI-H522 lung): 7.21 µM | TGI (NCI-H522 lung): 36 µM | GI50 (A498 renal): 1890 nM | TGI (A498 renal): 8.05 µM | GI50 (HT29 colon): 957 nM | TGI (HT29 colon): 5320 nM | GI50 (LOX IMVI melanoma): 1740 nM | TGI (LOX IMVI melanoma): 3600 nM | GI50 (MDA-MB-231 breast): 2020 nM | TGI (MDA-MB-231 breast): 5.99 µM | GI50 (SN12C renal): 4.48 µM | TGI (SN12C renal): 27 µM | GI50 (NCI-H460 lung): 2830 nM | TGI (NCI-H460 lung): 12.1 µM | GI50 (HS 578T breast): 5.34 µM | TGI (HS 578T breast): 50.6 µM | GI50 (A549 NSCLC): 5.1 µM | TGI (A549 NSCLC): > 100 µM | GI50 (BT-549 breast): 5.36 µM | TGI (BT-549 breast): 21.8 µM | GI50 (SF-295 CNS): 2050 nM | TGI (SF-295 CNS): 5.96 µM | GI50 (SF-539 CNS): 1720 nM | TGI (SF-539 CNS): 3420 nM | GI50 (786-0 renal): 2070 nM | TGI (786-0 renal): 5.88 µM | GI50 (RXF 393 renal): 1860 nM | TGI (RXF 393 renal): 4190 nM | GI50 (SK-MEL-2 melanoma): 2530 nM | TGI (SK-MEL-2 melanoma): 6.52 µM | GI50 (EKVX NSCLC): 5.45 µM | TGI (EKVX NSCLC): > 100 µM | GI50 (SK-MEL-5 melanoma): 1550 nM | TGI (SK-MEL-5 melanoma): 2990 nM | GI50 (OVCAR-3 ovarian): 2940 nM | TGI (OVCAR-3 ovarian): 11.8 µM | GI50 (SK-MEL-28 melanoma): 1840 nM | TGI (SK-MEL-28 melanoma): 3710 nM | GI50 (ACHN renal): 2890 nM | TGI (ACHN renal): 11.3 µM | GI50 (K-562 leukemia): 1040 nM | TGI (K-562 leukemia): > 100000 nM | GI50 (OVCAR-8 ovarian): 4.11 µM | TGI (OVCAR-8 ovarian): > 100000 nM | GI50 (U251 CNS): 3.28 µM | TGI (U251 CNS): 12.6 µM | GI50 (SNB-75 CNS): 10.5 µM | TGI (SNB-75 CNS): 30.8 µM | GI50 (NCI/ADR-RES ovarian): 5.03 µM | TGI (NCI/ADR-RES ovarian): > 100 µM | GI50 (SK-OV-3 ovarian): 27.6 µM | TGI (SK-OV-3 ovarian): 69.3 µM | GI50 (NCI-H226 lung): 15.4 µM | TGI (NCI-H226 lung): 48.9 µM | GI50 (TK-10 renal): 18.8 µM | TGI (TK-10 renal): 45.4 µM | GI50 (HCC-2998 colon): 2590 nM | TGI (HCC-2998 colon): 31.3 µM | GI50 (COLO 205 colon): 897 nM | TGI (COLO 205 colon): 2810 nM | GI50 (MALME-3M melanoma): 1950 nM | TGI (MALME-3M melanoma): 3910 nM | GI50 (UO-31 renal): 1610 nM | TGI (UO-31 renal): 3.89 µM | GI50 (MCF7 breast): 302 nM | TGI (MCF7 breast): 16.9 µM | GI50 (OVCAR-5 ovarian): 1670 nM | TGI (OVCAR-5 ovarian): 17.7 µM | GI50 (NCI-H23 lung): 5.79 µM | TGI (NCI-H23 lung): > 100 µM | GI50 (HOP-92 NSCLC): 2580 nM | TGI (HOP-92 NSCLC): 19.4 µM | GI50 (M14 melanoma): 1720 nM | TGI (M14 melanoma): 3.4 µM | GI50 (DU-145 prostate): 2740 nM | TGI (DU-145 prostate): 42.3 µM | GI50 (HOP-62 NSCLC): 3.59 µM | TGI (HOP-62 NSCLC): 24.1 µM | GI50 (CAKI-1 renal): 2820 nM | TGI (CAKI-1 renal): 17.1 µM | GI50 (CCRF-CEM leukemia): 2550 nM | TGI (CCRF-CEM leukemia): > 100000 nM | GI50 (HCT-15 colon): 2190 nM | TGI (HCT-15 colon): 11.7 µM | GI50 (MDA-MB-435): 2220 nM | TGI (MDA-MB-435): 5.99 µM | GI50 (IGROV1 ovarian): 3.31 µM | TGI (IGROV1 ovarian): 34.1 µM | GI50 (MOLT-4 leukemia): 2340 nM | TGI (MOLT-4 leukemia): > 100000 nM | GI50 (SNB-19 CNS): 3.71 µM | TGI (SNB-19 CNS): > 100000 nM | GI50 (RPMI-8226 leukemia): 2130 nM | TGI (RPMI-8226 leukemia): 8.72 µM | GI50 (HCT-116 colon): 1200 nM | TGI (HCT-116 colon): 4.1 µM | GI50 (T-47D breast): 1420 nM | TGI (T-47D breast): 4.31 µM | GI50 (SW-620 colon): 2320 nM | TGI (SW-620 colon): 15.1 µM | GI50 (SR leukemia): 2140 nM | TGI (SR leukemia): 9.3 µM | GI50 (UACC-257 melanoma): 2170 nM | TGI (UACC-257 melanoma): 4.33 µM | GI50 (HL-60(TB) leukemia): 2180 nM | TGI (HL-60(TB) leukemia): 22.1 µM | GI50 (SF-268 CNS): 4.09 µM | TGI (SF-268 CNS): 40 µM | GI50 (OVCAR-4 ovarian): 2080 nM | TGI (OVCAR-4 ovarian): > 100000 nM | GI50 (PC-3 prostate): 5.02 µM | TGI (PC-3 prostate): 69.5 µM | GI50 (KM12 colon): 5.3 µM | TGI (KM12 colon): > 100000 nM
